{"source": "patent US20240050414A1", "about": "“A COMPOSITION FOR USE IN THE TREATMENT OF INFERTILITY” (priority 2020, published 2024)", "key": {"[1]": {"test_system": "mouse oocytes with mouse sperm", "assay": "In vitro fertilisation and embryo development to blastocyst", "type": "cell-based", "settings": "Example 6, control PBS", "procedure": "To evaluate this, in vitro fertilisation studies were performed in the presence of the composition at a concentration of 10% and subsequent embryo development examined to blastocyst stage (see FIG. 7)."}, "8-OH-G on sperm DNA": {"test_system": "8-OH-G on sperm DNA", "assay": "Flow cytometric assay of oxidative DNA damage (8-OHG) on sperm DNA", "type": "cell-based, human", "procedure": "FIG. 3 illustrates evaluating the effect of ergothionine on sperm oxidative DNA damage, wherein sperm were separated from seminal fluid by density gradient centrifugation, washed in sperm wash media, and incubated in multipurpose handling medium for 48 hours in the presence of the cytoprotective and antioxidant compound ergothionine, wherein sperm were fixed in 4% PFA and stained with FITC labelled 8-OHG antibody (2 μg/ml) for 60 mins, washed and analysed by flow cytometry, wherein data were analyzed using FlowJo software and the mean fluorescent intensity (MFI) plotted, wherein statistical analysis was performed using the Wilcoxon signed-rank test, wherein N=6 per group;\nA total of 1×10e6 washed semen samples were fixed by re-suspending the washed sperm cell pellet in 500 μl of 4% paraformaldehyde (Chem Cruz, 281692), pH 7.2 and incubating for 20-30 minutes at RT. Fixed spermatozoa were centrifuged at 2,500×g for 1.5 minutes and washed twice in 500 μl 1% NGS-PBS buffer.\nMeasurement of oxidative DNA damage was determined using anti-DNA/RNA [15A3] […]\nROS and DNA damage are the most significant contributors to male infertility. […] In measuring this parameter, a flow cytometric assay was developed that could quantify the amount of 8-hydroxyguanine (8-OH-G) in the DNA of individual sperm by the use of a specific fluorescently-labelled monoclonal antibody (see FIG. 2)."}, "sperm": {"test_system": "sperm", "assay": "CASA sperm motility assessment", "type": "cell-based, human", "settings": "for maintaining percentage of motile and progressive sperm and VAP: 24 and 48 hour", "procedure": "FIG. 1 illustrates the evaluation of the cytoprotective and antioxidant compound ergothionine for ability to preserve sperm motility and progression, wherein sperm were separated from seminal fluid by density gradient centrifugation, washed in sperm wash media, and incubated in multipurpose handling medium for 48 hours in the presence of antioxidant, wherein path velocity (A) and sperm motility (B) were quantified by CASA, wherein for statistical analysis the log ratio to control was used as the dependent variable in ONEWAY ANOVA with posthoc testing by Dunnet's test (comparisons against a single ‘control’ value only), wherein N>12 per group;\nFIG. 4 illustrates ergothionine effectively maintains sperm motility and progression, wherein sperm were separated from seminal fluid by density gradient centrifugation, washed in sperm wash media and incubated in multipurpose handling medium in the presence of ergothionine at 1 mM for 24 hours (A-C) or 48 hours (D-F) or in the presence of ergothionine at 0.1 mM for 24 hours (G-I) or 48 hours (J-L), wherein sperm motility was analysed using CASA, wherein statistical analysis was performed using the Wilcoxon signed-rank, wherein N=26 per group for ergothionine at 1 mM and N=10 per group for 0.1 mM ergothionine;\nFIG. 8 illustrates a head-to-head comparison of the effect of a commercially available composition and the composition on sperm motility, wherein sperm were separated from seminal fluid by density gradient centrifugation, washed in sperm wash media and incubated in multipurpose handling medium in the presence of the commercially available composition (A,B) and the composition (C,D) for a period of 30 minutes, wherein sperm motility was analysed using CASA, wherein statistical analysis was performed using the Wilcoxon signed-rank test, wherein N=6 per group; and\nSperm motility assessments were carried out by Computer Assisted Sperm Analysis (CASA) using the Hamilton Thorne software and a Zeiss microscope, following WHO and manufacturers' guidelines. Briefly, semen samples were resuspended using Pasteur pipettes and diluted 1 in 3 in sperm wash media (Irvine Scientific, 9983). […] Motility assessment was evaluated by capturing at least 1000 sperm cell tracks per slide for unprocessed samples and 300 for processed samples. Total cell count (×10e6/ml), percentage immotile (IM), non-progressively motile (NP) and progressively motile (PR) sperm and average path velocity (VAP) for M and PM sperm was recorded for each sample as defined by World Health Organisation (WHO) laboratory manual for the examination and processing of human semen (fifth edition, 2010). […]"}, "[2]": {"settings": "cited from earlier work"}, "[3]": {"test_system": "bovine embryo development", "settings": "cited from earlier work"}, "rats [4]": {"test_system": "rats", "settings": "2 g/kg; cited from earlier work"}, "embryo development": {"test_system": "embryo development", "settings": "0.1 mM; cited from earlier work"}, "rats [5]": {"test_system": "rats", "settings": "fed 0.9% of diet for 13 weeks; cited from earlier work"}, "sheep oocytes": {"test_system": "sheep oocytes", "settings": "cited from earlier work"}}, "data": [{"smiles": "C[N+](C)(C)[C@@H](Cc1c[nH]c(=S)[nH]1)C(=O)[O-]", "note": "[ergothionine]", "values": [{"measurement": "effectiveness of exposed sperm in fertilisation versus PBS", "setting": "[1]", "result": "more effective that those exposed to PBS"}, {"measurement": "protection against 8-OH-G formation on sperm DNA", "setting": "8-OH-G on sperm DNA; ergothionine 0.1 mM, 48 hour, FIG. 3a", "result": "ability to protect against 8-OH-G formation on sperm DNA"}, {"measurement": "cytoprotective effect against 8-OH-G formation (dose dependence)", "setting": "8-OH-G on sperm DNA; ergothionine 1 mM vs 0.1 mM, 48 hours, FIG. 3b", "result": "even greater cytoprotective effect"}, {"measurement": "effects on sperm motility and average path velocity (VAP)", "setting": "sperm; 48 hours in multipurpose handling medium, FIG. 1", "result": "sperm protective properties"}, {"measurement": "maintaining percentage of motile and progressive sperm and VAP", "setting": "sperm; ergothionine 0.1 mM, p values 0.04 for all parameters", "result": "effective at maintaining the percentage of motile and progressive sperm in addition to the speed of the movement (VAP)"}, {"measurement": "maintaining percentage of motile and progressive sperm and VAP", "setting": "sperm; ergothionine 1 mM, p values 0.002 for all parameters", "result": "effective at maintaining the percentage of motile and progressive sperm in addition to the speed of the movement (VAP)"}, {"measurement": "toxicity / effect on sperm motility and progression", "setting": "sperm; ergothionine 1 mM, 48 hour", "result": "effective and non-toxic, with no negative effect on sperm motility and progression"}, {"measurement": "water solubility", "setting": "[2]", "result": "water soluble"}, {"measurement": "concentrations beneficial for bovine embryo development", "setting": "[3]", "result": "up to 0.1 mM"}, {"measurement": "concentrations that negatively affect bovine embryo development", "setting": "[3]", "result": "> 500", "unit": "µM"}, {"measurement": "adverse effects in rats", "setting": "rats [4]", "result": "no adverse effects observed"}, {"measurement": "safety for embryo development", "setting": "embryo development", "result": "safe for embryo development"}, {"measurement": "impact on fertility in rats", "setting": "rats [5]", "result": "no negative impact on fertility"}, {"measurement": "concentrations beneficial for in vitro maturation of sheep oocytes", "setting": "sheep oocytes", "result": "up to 10 mM"}]}]}
